According to the NIST ThermoML archive (doi:10.1016/j.jct.2015.11.009):

What was measured:
[1] = refractive index (Na D-line) (dimensionless); xn = mol fraction of the nth substance listed; details: 100 kPa, Liquid, Standard Abbe refractometry
[2] = xn = mol fraction of the nth substance listed; details: 100 kPa, Liquid; for speed of sound: Frequency=3 MHz, Sing-around technique in a fixed-path interferometer; for mass density: Vibrating tube method

O=C1CCCN1 [2-pyrrolidinone] + CCCCn1cc[n+](C)c1.F[B-](F)(F)F
Details | mass density, 298.15 K [kg/m3] | refractive index, 298.15 K | refractive index, 303.15 K | refractive index, 308.15 K | refractive index, 313.15 K | refractive index, 318.15 K | refractive index, 323.15 K | speed of sound, 298.15 K [m/s] | speed of sound, 303.15 K [m/s]
[1], x2 = 0 | – | 1.48591 | 1.48403 | 1.48218 | 1.48033 | 1.47841 | 1.47649 | – | –
[1], x2 = 0.102 | – | 1.47414 | 1.47243 | 1.47067 | 1.46895 | 1.46715 | 1.46522 | – | –
[1], x2 = 0.1951 | – | 1.46433 | 1.46228 | 1.461 | 1.45929 | 1.45813 | 1.45533 | – | –
[1], x2 = 0.3046 | – | 1.45472 | 1.45316 | 1.45161 | 1.44998 | 1.44832 | 1.44663 | – | –
[1], x2 = 0.3886 | – | 1.4487 | 1.44722 | 1.44571 | 1.44418 | 1.44261 | 1.44099 | – | –
[1], x2 = 0.5262 | – | 1.44033 | 1.43885 | 1.43737 | 1.43589 | 1.43436 | 1.43282 | – | –
[1], x2 = 0.6185 | – | 1.43543 | 1.43414 | 1.43271 | 1.43125 | 1.42972 | 1.42817 | – | –
[1], x2 = 0.69 | – | 1.43222 | 1.43084 | 1.42943 | 1.42805 | 1.42665 | 1.42522 | – | –
[1], x2 = 0.7844 | – | 1.4283 | 1.42696 | 1.4256 | 1.4242 | 1.42286 | 1.42148 | – | –
[1], x2 = 0.8861 | – | 1.42468 | 1.42338 | 1.42205 | 1.42069 | 1.41928 | 1.41788 | – | –
[2], x2 = 0 | 1107.16 | – | – | – | – | – | – | 1634.4 | 1618
[2], x2 = 0.102 | 1128.93 | – | – | – | – | – | – | 1625.5 | 1610.2
[2], x2 = 0.1951 | 1143.99 | – | – | – | – | – | – | 1618 | 1604.1
[2], x2 = 0.3046 | 1155.01 | – | – | – | – | – | – | 1608.3 | 1594.5
[2], x2 = 0.3886 | 1163.44 | – | – | – | – | – | – | 1601 | 1587.5
[2], x2 = 0.5262 | 1173.25 | – | – | – | – | – | – | 1590.7 | 1578.1
[2], x2 = 0.6185 | 1179.38 | – | – | – | – | – | – | 1584.4 | 1572.5
[2], x2 = 0.69 | 1183.57 | – | – | – | – | – | – | 1579.5 | 1567.2
[2], x2 = 0.7844 | 1188.69 | – | – | – | – | – | – | 1574.3 | 1562.2
[2], x2 = 0.8861 | 1193.47 | – | – | – | – | – | – | 1569.2 | 1557.3
